Experiment [1] addresses Histone-lysine N-methyltransferase ASH1L (Homo sapiens) (UniProt Q9NR48). As to the kind of experiment: Inhibition of N-terminal His-tagged human recombinant ASH1L (2046 to 2330 residues) at higher concentration using oligo nucleosomes as substrate and 3H-SAM as cosubstrate incubated for 60 mins by scintillation counter analysis.
In experiment [2] the target is T1, Protein arginine N-methyltransferase 7 (Homo sapiens) (UniProt Q9NVM4).
T1 sequence (whole entry): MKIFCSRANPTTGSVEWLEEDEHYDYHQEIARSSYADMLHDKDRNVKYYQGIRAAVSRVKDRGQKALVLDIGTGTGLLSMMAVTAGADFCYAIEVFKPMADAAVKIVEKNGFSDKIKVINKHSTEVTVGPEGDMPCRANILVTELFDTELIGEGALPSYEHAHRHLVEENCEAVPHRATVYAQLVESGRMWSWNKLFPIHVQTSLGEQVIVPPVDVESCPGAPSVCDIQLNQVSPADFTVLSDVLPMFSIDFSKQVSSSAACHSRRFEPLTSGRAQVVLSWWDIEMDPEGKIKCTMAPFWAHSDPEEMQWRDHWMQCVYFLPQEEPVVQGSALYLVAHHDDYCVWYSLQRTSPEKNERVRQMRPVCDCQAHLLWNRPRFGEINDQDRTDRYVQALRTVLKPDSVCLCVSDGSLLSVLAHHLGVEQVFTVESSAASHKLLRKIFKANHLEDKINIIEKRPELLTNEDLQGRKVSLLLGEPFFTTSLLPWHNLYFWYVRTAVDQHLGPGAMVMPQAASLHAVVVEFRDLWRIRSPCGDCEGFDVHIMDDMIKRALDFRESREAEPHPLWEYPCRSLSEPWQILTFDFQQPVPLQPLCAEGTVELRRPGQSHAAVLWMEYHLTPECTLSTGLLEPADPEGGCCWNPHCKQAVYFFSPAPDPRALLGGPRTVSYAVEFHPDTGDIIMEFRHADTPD
As to the kind of experiment: Inhibition of PRMT7 catalysed methylation of HNRNPA1 at R194 residue in HEK293T cells assessed as increase in ratio of abundance of unmethylated over methylated peptides at 10 to 50 uM by UHPLC- MS/MS analysis. In kind it is cell-based. To be noted: dose 10-50 µM, time 24-48 hrs, TDE = time-dependent effect.

Experiment [3] concerns the target T1, Protein arginine N-methyltransferase 7 (Homo sapiens). As to the kind of experiment: Inhibition of PRMT7 catalysed methylation of HNRNPA1 at R194 residue in HEK293T cells assessed as increase in ratio of abundance of unmethylated over methylated peptides measured after 24 to 48 hrs by UHPLC- MS/MS analysis. To be noted: dose 10-50 µM, time 24-48 hrs. The experiment is classed as cell-based.

Experiment [4] has the same target. As to the kind of experiment: Inhibition of PRMT7 catalysed methylation of HSP70 at R469 residue in HEK293T cells assessed as increase in ratio of abundance of unmethylated over methylated peptides at 10 to 50 uM measured after 24 to 48 hrs by UHPLC- MS/MS analysis. In kind it is cell-based. The following applies: dose 10-50 µM, time 24-48 hrs.
Experiment [5] has as its target T2, Histone-lysine N-methyltransferase SETD7 (Homo sapiens) (UniProt Q8WTS6).
T2 sequence (whole entry): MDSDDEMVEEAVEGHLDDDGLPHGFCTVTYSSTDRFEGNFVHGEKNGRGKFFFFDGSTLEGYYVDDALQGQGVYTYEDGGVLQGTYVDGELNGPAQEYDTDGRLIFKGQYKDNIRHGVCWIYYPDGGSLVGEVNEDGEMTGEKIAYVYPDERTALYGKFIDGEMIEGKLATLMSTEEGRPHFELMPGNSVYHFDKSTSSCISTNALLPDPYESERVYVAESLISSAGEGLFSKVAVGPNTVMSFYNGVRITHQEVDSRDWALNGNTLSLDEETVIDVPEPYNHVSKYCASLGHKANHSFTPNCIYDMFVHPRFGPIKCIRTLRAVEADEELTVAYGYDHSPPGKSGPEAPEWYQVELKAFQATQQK
As to the kind of experiment: Inhibition of N-terminal/C-terminal His/GST-tagged human recombinant SET7/9 (2 to 366 residues) at higher concentration using core histone as substrate and 3H-SAM as cosubstrate incubated for 60 mins by scintillation counter analysis.

Experiment [6] has as its target Histone-lysine N-methyltransferase, H3 lysine-79 specific (Homo sapiens) (UniProt Q8TEK3). As to the kind of experiment: Inhibition of N-terminal/C-terminal His/GST-tagged human recombinant DOT1L (1 to 416 residues) at 10 uM using oligo nucleosome as substrate and 3H-SAM as cosubstrate incubated for 60 mins by scintillation counter analysis.
The target in experiment [7] is T1, Protein arginine N-methyltransferase 7 (Homo sapiens). Kind of experiment: Inhibition of PRMT7 catalysed methylation of HSP70 at R469 residue in HEK293T cells assessed as increase in ratio of abundance of unmethylated over methylated peptides measured after 24 to 48 hrs by UHPLC- MS/MS analysis. In kind it is cell-based. The following applies: dose 10-50 µM, time 24-48 hrs.

The target is the same in experiment [8]. As to the kind of experiment: Inhibition of PRMT7 catalysed methylation of HNRNPA1 at R194 residue in HEK293T cells assessed as increase in ratio of abundance of unmethylated over methylated peptides at 10 to 50 uM measured after 24 to 48 hrs by UHPLC- MS/MS analysis. To be noted: dose 10-50 µM, time 24-48 hrs. The experiment is classed as cell-based.
In experiment [9] the target is T3, Histone-lysine N-methyltransferase SMYD3 (Homo sapiens) (UniProt Q9H7B4).
T3 sequence (whole entry): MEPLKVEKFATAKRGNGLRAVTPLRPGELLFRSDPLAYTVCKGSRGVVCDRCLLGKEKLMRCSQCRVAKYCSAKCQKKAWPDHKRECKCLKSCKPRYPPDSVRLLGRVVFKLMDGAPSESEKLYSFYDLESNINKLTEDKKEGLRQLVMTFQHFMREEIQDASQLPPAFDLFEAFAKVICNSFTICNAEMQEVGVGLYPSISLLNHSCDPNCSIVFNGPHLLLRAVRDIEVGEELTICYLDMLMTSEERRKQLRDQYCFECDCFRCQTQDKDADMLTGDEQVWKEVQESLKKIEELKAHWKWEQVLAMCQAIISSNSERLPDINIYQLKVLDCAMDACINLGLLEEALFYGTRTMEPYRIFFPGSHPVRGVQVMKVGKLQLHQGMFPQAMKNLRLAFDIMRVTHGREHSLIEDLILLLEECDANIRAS
Kind of experiment: Inhibition of C-terminal His/GST-tagged human recombinant SMYD3 (2 to 428 residues) at higher concentration using 3H-SAM as substrate incubated for 60 mins by scintillation counter analysis.

Experiment [10] has as its target T1, Protein arginine N-methyltransferase 7 (Homo sapiens). As to the kind of experiment: Inhibition of PRMT7 catalysed methylation of HSP70 at R469 residue in HEK293T cells assessed as increase in ratio of abundance of unmethylated over methylated peptides at 10 to 50 uM by UHPLC- MS/MS analysis. In kind it is cell-based. To be noted: dose 10-50 µM, time 24-48 hrs, TDE = time-dependent effect.

The source made the active and inactive calls. The calls are words filed in the database; no cut-off is given here.

Chain of Histone-lysine N-methyltransferase, H3 lysine-79 specific (Homo sapiens) (Q8TEK3 whole entry, looked up, the tested form may be a part): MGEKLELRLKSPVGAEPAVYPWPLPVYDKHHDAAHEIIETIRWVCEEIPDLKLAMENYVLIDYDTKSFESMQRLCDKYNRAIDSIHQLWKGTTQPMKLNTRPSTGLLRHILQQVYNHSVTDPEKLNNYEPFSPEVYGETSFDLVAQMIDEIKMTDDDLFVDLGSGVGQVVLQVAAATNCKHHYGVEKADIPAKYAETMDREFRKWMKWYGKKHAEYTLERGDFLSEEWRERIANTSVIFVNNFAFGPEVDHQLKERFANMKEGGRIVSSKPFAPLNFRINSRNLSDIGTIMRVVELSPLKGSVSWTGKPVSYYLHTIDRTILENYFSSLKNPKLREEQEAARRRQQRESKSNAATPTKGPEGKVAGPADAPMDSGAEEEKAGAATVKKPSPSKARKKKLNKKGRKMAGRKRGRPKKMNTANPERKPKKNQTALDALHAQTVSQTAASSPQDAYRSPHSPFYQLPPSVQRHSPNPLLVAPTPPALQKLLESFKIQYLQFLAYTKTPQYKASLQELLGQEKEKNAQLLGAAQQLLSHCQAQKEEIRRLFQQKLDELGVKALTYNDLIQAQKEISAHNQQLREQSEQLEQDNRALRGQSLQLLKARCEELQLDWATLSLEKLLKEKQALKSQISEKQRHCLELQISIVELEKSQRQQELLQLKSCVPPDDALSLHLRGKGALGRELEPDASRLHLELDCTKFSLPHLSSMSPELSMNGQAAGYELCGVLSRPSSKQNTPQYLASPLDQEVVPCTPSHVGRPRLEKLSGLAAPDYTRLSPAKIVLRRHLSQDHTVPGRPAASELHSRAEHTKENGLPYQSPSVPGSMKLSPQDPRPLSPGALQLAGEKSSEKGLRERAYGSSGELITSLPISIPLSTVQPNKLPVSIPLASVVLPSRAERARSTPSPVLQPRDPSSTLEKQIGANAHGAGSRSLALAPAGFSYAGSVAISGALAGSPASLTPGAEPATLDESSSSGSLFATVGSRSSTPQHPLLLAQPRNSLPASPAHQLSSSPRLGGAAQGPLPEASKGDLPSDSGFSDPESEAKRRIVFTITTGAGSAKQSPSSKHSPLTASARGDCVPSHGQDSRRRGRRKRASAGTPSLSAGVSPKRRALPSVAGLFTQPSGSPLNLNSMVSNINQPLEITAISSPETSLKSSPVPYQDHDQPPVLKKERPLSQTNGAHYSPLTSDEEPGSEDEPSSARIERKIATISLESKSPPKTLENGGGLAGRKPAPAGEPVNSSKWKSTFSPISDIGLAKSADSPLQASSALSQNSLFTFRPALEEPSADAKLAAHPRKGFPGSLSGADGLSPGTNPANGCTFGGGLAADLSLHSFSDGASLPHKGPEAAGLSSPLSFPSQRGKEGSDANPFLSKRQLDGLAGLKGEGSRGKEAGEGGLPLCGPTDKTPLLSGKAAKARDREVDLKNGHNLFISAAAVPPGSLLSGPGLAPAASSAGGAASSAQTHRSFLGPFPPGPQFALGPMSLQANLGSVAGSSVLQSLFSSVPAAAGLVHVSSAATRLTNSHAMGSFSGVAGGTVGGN

On to `COC(=O)c1cc(O)c2cc(NC(=O)NCCCNC(=N)NC[C@H]3O[C@@H](n4cnc5c(N)ncnc54)[C@H](O)[C@@H]3O)cc(C(F)(F)F)c2c1`, for which the inhibition result in experiment [1], in experiment [5] and in [9] was “inactive” in each case. Further, the inhibition entry in experiment [2] is “Tde”; in [3] it was “Dose-Dependent Effect”; in experiment [7], “Dose-Dependent Effect”; in experiment [10] it was “Tde”. For the same compound, the inhibition result in [4], in [6] and in experiment [8] was “Active” throughout.

The values are drawn from ChEMBL document CHEMBL5365419, “Identification of a Protein Arginine Methyltransferase 7 (PRMT7)/Protein Arginine Methyltransferase 9 (PRMT9) Inhibitor” (J Med Chem, 2023).
